Measurements published in ChEMBL document CHEMBL1201862, “PubChem BioAssay data set” (2004).
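Tested at 5 concentrations; 48 h exposure; 96-well plates; endpoints linearly interpolated, else capped at highest concentration. GI50 is the concentration that inhibits growth by half.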 The source made the active and inactive calls. Rule as the data show it: active = GI50 up to about 1.1 µM and inactive = higher.

Columns and labels:
Assay in all cases: growth of human tumour cells (NCI), 48 h
[1] = system: NCI/ADR-RES
[2] = system: OVCAR-3
[3] = system: ACHN
[4] = system: UACC-62
[5] = system: RXF 393
[6] = system: NCI-H522
[7] = system: PC-3
[8] = system: MCF7
[9] = system: HCT-15
[10] = system: BT-549
[11] = system: SNB-19
[12] = system: CCRF-CEM
[13] = system: SK-MEL-5
[14] = system: UACC-257
[15] = system: HL-60
[16] = system: IGROV-1
[17] = system: MDA-MB-231
[18] = system: K562
[19] = system: HOP-92
[20] = system: SR

SMILES | GI50 [1] | GI50 [2] | GI50 [3] | GI50 [4] | GI50 [5] | GI50 [6] | GI50 [7] | GI50 [8] | GI50 [9] | GI50 [10] | GI50 [11] | GI50 [12] | GI50 [13] | GI50 [14] | GI50 [15] | GI50 [16] | GI50 [17] | GI50 [18] | GI50 [19] | GI50 [20]
N=C(N)NC(=N)Nc1ccccc1.Sc1nc2ccccc2s1 | > 100 µM (inactive) | 0.532 µM (active) | > 100 µM (inactive) | > 100 µM (inactive) | > 100 µM (inactive) | 53.8 µM (inactive) | > 100 µM (inactive) | > 100 µM (inactive) | > 100 µM | > 100 µM (inactive) | > 100 µM (inactive) | > 100 µM (inactive) | > 100 µM (inactive) | > 100 µM (inactive) | > 100 µM (inactive) | 70.5 µM (inactive) | > 100 µM (inactive) | > 100 µM (inactive) |  | 
O=C1Cc2cc3ccccc3nc2-c2ccccc2N1 | 31.6 µM (inactive) | 73.1 µM (inactive) | 54.7 µM (inactive) | > 100 µM (inactive) | 70.5 µM (inactive) | 26.7 µM (inactive) | > 100 µM (inactive) | 49 µM (inactive) | 96.6 µM | 92.9 µM (inactive) | 49.2 µM (inactive) | > 100 µM (inactive) | > 100 µM (inactive) | 99.1 µM (inactive) | > 100 µM (inactive) | > 100 µM (inactive) | 20.5 µM (inactive) | 39.9 µM (inactive) | 41.7 µM (inactive) | 
COC(=O)C1Cc2c([nH]c3ccccc23)-c2[nH]c3ccccc3c2CC(NC(C)=O)C(=O)NCC(=O)NCC(=O)N1 (stereo not given) | > 100 µM (inactive) | > 100 µM (inactive) | > 100 µM (inactive) | > 100 µM (inactive) | > 100 µM (inactive) | > 100 µM (inactive) | > 100 µM (inactive) |  | > 100 µM | > 100 µM (inactive) | > 100 µM (inactive) | > 100 µM (inactive) | > 100 µM (inactive) | > 100 µM (inactive) | > 100 µM (inactive) | > 100 µM (inactive) | > 100 µM (inactive) | > 100 µM (inactive) | > 100 µM (inactive) | 
C/C=C\C(CC(=O)NCCC1CN(S(=O)(=O)C(F)(F)F)c2ccccc21)CC(=O)OC (stereo not given) | 29.6 µM (inactive) | 38.3 µM (inactive) | 37.6 µM (inactive) | 34.1 µM (inactive) | 36.3 µM (inactive) | 18.3 µM (inactive) | 35.4 µM (inactive) | 49.9 µM (inactive) | 42.8 µM | 27.4 µM (inactive) | 44.7 µM (inactive) | 26.6 µM (inactive) | 16.9 µM (inactive) | 48.2 µM (inactive) |  | 50 µM (inactive) | 50.8 µM (inactive) | 51.8 µM (inactive) | 23.9 µM (inactive) | > 100 µM (inactive)
OC(C1CCC=NN1C(O)(C(F)(F)F)C(F)(F)F)(C(F)(F)F)C(F)(F)F (stereo not given) | > 10 µM (inactive) | > 10 µM (inactive) | > 10 µM (inactive) | > 10 µM (inactive) | > 10 µM (inactive) | > 10 µM (inactive) | > 10 µM (inactive) | > 10 µM (inactive) | > 10 µM | > 10 µM (inactive) | > 10 µM (inactive) | > 10 µM (inactive) | > 10 µM (inactive) | > 10 µM (inactive) |  | > 10 µM (inactive) | > 10 µM (inactive) | > 10 µM (inactive) | > 10 µM (inactive) | > 10 µM (inactive)
O=C1C(Cl)=C(N2CCOCC2)C(=O)c2c(O)ccc(O)c21 | 0.366 µM (active) | 0.385 µM (active) | 0.263 µM (active) | 0.729 µM (active) | 0.222 µM (active) | 0.286 µM (active) | 0.536 µM (active) | 0.213 µM (active) | 0.155 µM | 0.173 µM (active) | 1.78 µM (inactive) | 0.473 µM (active) | 0.316 µM (active) | 0.33 µM (active) |  | 0.612 µM (active) | 0.216 µM (active) | 10 µM (inactive) | 0.291 µM (active) | 1.4 µM (inactive)
C=CCC1(O)CC(n2cc(C)c(=O)[nH]c2=O)OC1CO[Si](C)(C)C(C)(C)C (stereo not given) | 43.1 µM (inactive) | 39 µM (inactive) | 45.6 µM (inactive) | 35.9 µM (inactive) | 29 µM (inactive) |  | 36.5 µM (inactive) | 47.8 µM (inactive) | 44.4 µM | 46.3 µM (inactive) | > 100 µM (inactive) | 43.8 µM (inactive) | 34.4 µM (inactive) | 52.4 µM (inactive) |  | 46.9 µM (inactive) | 64.6 µM (inactive) | 61.4 µM (inactive) | 35.5 µM (inactive) | 45 µM (inactive)
CC(=O)[C@@]1(C)CC2(CCN(C)CC2)OC1C (stereo not given in full) | > 100 µM (inactive) | > 100 µM (inactive) | > 100 µM (inactive) |  | > 100 µM (inactive) | > 100 µM (inactive) |  |  | > 100 µM | > 100 µM (inactive) | > 100 µM (inactive) |  | > 100 µM (inactive) | > 100 µM (inactive) |  | > 100 µM (inactive) | > 100 µM (inactive) | > 100 µM (inactive) | > 100 µM (inactive) | 
CCOC(=O)/C=C1\c2ccccc2C(=O)N1CC(=O)OCC | 50 µM (inactive) | > 100 µM (inactive) | > 100 µM (inactive) | > 100 µM (inactive) | > 100 µM (inactive) | > 100 µM (inactive) | > 100 µM (inactive) |  | > 100 µM | > 100 µM (inactive) | > 100 µM (inactive) | > 100 µM (inactive) | > 100 µM (inactive) | > 100 µM (inactive) |  | > 100 µM (inactive) | > 100 µM (inactive) | > 100 µM (inactive) | 39.9 µM (inactive) | 
N=C(c1ccc(-c2cn3cc(C(=N)N4CCCC4)ccc3n2)cc1)N1CCCC1 | > 100 µM (inactive) | > 100 µM (inactive) | > 100 µM (inactive) | > 100 µM (inactive) | > 100 µM (inactive) | > 100 µM (inactive) | > 100 µM (inactive) |  | > 100 µM | > 100 µM (inactive) | > 100 µM (inactive) | 20.8 µM (inactive) | > 100 µM (inactive) | > 100 µM (inactive) | 0.0303 µM (active) | > 100 µM (inactive) | > 100 µM (inactive) | > 100 µM (inactive) | 3.86 µM (inactive) | > 100 µM (inactive)
O=C1Nc2ccc(S(=O)(=O)NCCO)cc2/C1=C1/Nc2ccccc2C1=O | > 100 µM (inactive) | 4.06 µM (inactive) | 6.97 µM (inactive) | 7.18 µM (inactive) | 4.36 µM (inactive) | 1.86 µM (inactive) | 12.2 µM (inactive) | 0.475 µM (active) | 13.3 µM | 3.98 µM (inactive) | 8.81 µM (inactive) | 3.23 µM (inactive) | 12.7 µM (inactive) | > 100 µM (inactive) |  | 1.04 µM (active) | 12 µM (inactive) | 4.28 µM (inactive) | 13.8 µM (inactive) | 1.01 µM (active)
Cc1oc2nc(N(C)C)nc(NN)c2c1C | > 100 µM (inactive) | > 100 µM (inactive) | > 100 µM (inactive) | > 100 µM (inactive) | > 100 µM (inactive) | > 100 µM (inactive) | > 100 µM (inactive) |  | > 100 µM | > 100 µM (inactive) | > 100 µM (inactive) | > 100 µM (inactive) | > 100 µM (inactive) | > 100 µM (inactive) | > 100 µM (inactive) | > 100 µM (inactive) | > 100 µM (inactive) | > 100 µM (inactive) | > 100 µM (inactive) | 
CCOC(=O)c1cc(C2CCN(Cc3ccccc3)C2=O)c(C(=O)/C=C(/C)N)[nH]1 (stereo not given) | 72.1 µM (inactive) | 81.3 µM (inactive) | > 100 µM (inactive) | > 100 µM (inactive) | > 100 µM (inactive) | 57.3 µM (inactive) | > 100 µM (inactive) | 96.6 µM (inactive) | > 100 µM | > 100 µM (inactive) | > 100 µM (inactive) |  | > 100 µM (inactive) | > 100 µM (inactive) |  | 67.5 µM (inactive) | > 100 µM (inactive) | > 100 µM (inactive) | 25.8 µM (inactive) | 
Cc1ccc(-n2cc(-c3ccc(Cl)cc3)c3c(N/N=C4\SCC(=O)N4C)ncnc32)cc1 | 6.65 µM (inactive) | 10.8 µM (inactive) | 7.36 µM (inactive) | 3.44 µM (inactive) | 7.18 µM (inactive) | 5.27 µM (inactive) | 2.72 µM (inactive) |  | 59.3 µM | 15.6 µM (inactive) | 9.59 µM (inactive) | > 100 µM (inactive) | 3.81 µM (inactive) | 4.66 µM (inactive) | > 100 µM (inactive) | 14.8 µM (inactive) | 4.99 µM (inactive) | 5 µM (inactive) | 2.62 µM (inactive) | 20.7 µM (inactive)
Cc1c(O)c(OC2OC(CO)C(O)C(O)C2O)cc2c1CC[C@@H]1C2(C)C(=O)C[C@]2(C)[C@@H]([C@@](C)(O)C3CCC(C)(C)O3)[C@H](O)C[C@@]12C (stereo not given in full) | > 100 µM (inactive) | > 100 µM (inactive) | > 100 µM (inactive) | > 100 µM (inactive) | > 100 µM (inactive) | > 100 µM (inactive) | > 100 µM (inactive) | > 100 µM (inactive) | > 100 µM | > 100 µM (inactive) | > 100 µM (inactive) | > 100 µM (inactive) | > 100 µM (inactive) | > 100 µM (inactive) |  | > 100 µM (inactive) | > 100 µM (inactive) | > 100 µM (inactive) | > 100 µM (inactive) | > 100 µM (inactive)
C/C(=N\NC(=O)c1ccccc1O)c1cccc(/C(C)=N/NC(=O)c2ccccc2O)n1 | 27.6 µM (inactive) |  | 4.27 µM (inactive) | 2.58 µM (inactive) | 8.55 µM (inactive) |  | 7.1 µM (inactive) | 26.2 µM (inactive) | 7.55 µM | > 39.4 µM (inactive) |  |  | 6.97 µM (inactive) |  |  |  | 19.4 µM (inactive) | 15 µM (inactive) | 10.9 µM (inactive) | 1.89 µM (inactive)
